Patent publication US8486594B2, “P-terphenyl compound mixture and electrophotographic photoreceptors made by using the same” (Hodogaya Chemical Co., Ltd., priority 2006, dated 2013)

Key:
[1] = Solubility in organic solvent (tetrahydrofuran); assay type: physicochemical; details: 25° C. tetrahydrofuran; % (weight/volume)
Description: [Solubility in Organic Solvent]
The unit of solubility is % (weight/volume).

[2] = Dissolution of charge-transporting agent in tetrahydrofuran solution of polycarbonate resin for charge-transporting layer; assay type: physicochemical; details: 12.2% tetrahydrofuran solution of polycarbonate resin (Yupilon Z), ultrasonic wave
Description: The p-terphenyl compound mixture was completely dissolved by propagating an ultrasonic wave thereto. This solution was applied to the charge-generating layer with a wire-wound bar and dried at 110° C. and ordinary pressure for […] to form a charge-transporting layer having a thickness of 20 μm. Thus, Photoreceptor No. 1 was produced.
Photoreceptor No. 6 was produced in the same manner as in Photoreceptor Example 1, except that the p-terphenyl compound singly synthesized as Compound No. 6 was used in place of the charge-transporting agent used in Photoreceptor Example 1.
Photoreceptor No. 7 was produced in the same manner as in Photoreceptor Example 1, except that the p-terphenyl compound singly synthesized as Compound No. 9 was used in place of the charge-transporting agent used in Photoreceptor Example 1.
The p-terphenyl compound mixture was completely dissolved by propagating an ultrasonic wave thereto. This solution was applied to the charge-generating layer with a wire-wound bar and dried at 110° C. and ordinary pressure for 30 minutes to form a charge-transporting layer having a thickness of 10 μm. Furthermore, a semitransparent metal electrode was formed on the charge-transporting layer by vapor deposition to produce Photoreceptor No. 8. […]

| SMILES | Solubility in tetrahydrofuran [1] [%] | dissolution of charge-transporting agent in coating solution [2] |
| --- | --- | --- |
| Cc1ccc(N(c2ccccc2)c2ccc(-c3ccc(-c4ccc(N(c5ccccc5)c5ccc(C)cc5)cc4)cc3)cc2)cc1 [Compound No. 1, 4,4′-bis(4-methyldiphenylamino)-p-terphenyl] | 25.0 |  |
| Cc1ccc(N(c2ccccc2)c2ccc(-c3ccc(-c4ccc(N(c5ccccc5)c5ccc(C)cc5C)cc4)cc3)cc2)c(C)c1 [Compound No. 4, 4,4′-bis(2,4-dimethyldiphenylamino)-p-terphenyl] | 10.0 |  |
| Cc1ccc(N(c2ccc(C)cc2)c2ccc(-c3ccc(-c4ccc(N(c5ccc(C)cc5)c5ccc(C)cc5)cc4)cc3)cc2)cc1 [Compound No. 6, 4,4′-bis(4,4′-dimethyldiphenylamino)-p-terphenyl] | 2.0 | did not dissolve |
| c1ccc(N(c2ccccc2)c2ccc(-c3ccc(-c4ccc(N(c5ccccc5)c5ccccc5)cc4)cc3)cc2)cc1 [Compound No. 9, 4,4′-bis(diphenylamino)-p-terphenyl] | 2.0 | did not dissolve |
